Read-outs that look alike come from different tables or passages of the source.
What was measured:
[1] = test system: Abutilon theophrasti (ABUTH), velvetleaf; experiment: Postemergence herbicide evaluation, growth of Abutilon theophrasti (ABUTH); type: in vivo; conditions: Abutilon theophrasti, post-emergence, percent reduction in plant size vs untreated control, read-out: AVE. ABUTH; for pest or weed control at 280 g/ha: 280 g ae/ha; for pest or weed control at 560 g/ha: 560 g ae/ha
[2] = test system: Chenopodium album (CHEAL), common lambsquarters; experiment: Postemergence herbicide evaluation, growth of Chenopodium album (CHEAL); type: in vivo; conditions: Chenopodium album, post-emergence, percent reduction in plant size vs untreated control, read-out: Ave. CHEAL; for pest or weed control at 280 g/ha: 280 g ae/ha; for pest or weed control at 560 g/ha: 560 g ae/ha
[3] = Volatility of compounds measured by thermogravimetric analysis (TGA); type: physicochemical
[4] = test system: Amaranthus rudis (AMATA), tall water hemp; experiment: Postemergence herbicide evaluation, growth of Amaranthus rudis (AMATA); type: in vivo; conditions: Amaranthus tuberculatus, post-emergence, percent reduction in plant size vs untreated control, read-out: Ave. AMATA; for pest or weed control at 280 g/ha: 280 g ae/ha; for pest or weed control at 560 g/ha: 560 g ae/ha
[5] = test system: Ambrosia artemisiifolia (AMBEL), common ragweed; experiment: Postemergence herbicide evaluation, growth of Ambrosia artemisiifolia (AMBEL); type: in vivo; conditions: Ambrosia artemisiifolia, post-emergence, percent reduction in plant size vs untreated control, read-out: AVE. AMBEL; for pest or weed control at 280 g/ha: 280 g ae/ha; for pest or weed control at 560 g/ha: 560 g ae/ha
[6] = test system: weeds ABUTH, AMATA, AMBEL, CHEAL, ERICA; experiment: Postemergence herbicide evaluation, overall average % weed control across ABUTH, AMATA, AMBEL, CHEAL and ERICA; type: in vivo; conditions: post-emergence, average over five weeds, read-out: Overall Ave % Weed Control; for pest or weed control at 280 g/ha: 280 g ae/ha; for pest or weed control at 560 g/ha: 560 g ae/ha
[7] = test system: glyphosate resistant Conyza canadensis (L.) (ERICA), horseweed; experiment: Postemergence herbicide evaluation, growth of Conyza canadensis (ERICA); type: in vivo; conditions: Erigeron canadensis, post-emergence, percent reduction in plant size vs untreated control, read-out: Ave. ERICA; for pest or weed control at 280 g/ha: 280 g ae/ha; for pest or weed control at 560 g/ha: 560 g ae/ha

| Structure (SMILES) | pest or weed control at 280 g/ha ([1]; 168 h, 7 DAA) [%] | pest or weed control at 280 g/ha ([1]; 336 h, 14 DAA) [%] | pest or weed control at 560 g/ha ([1]; 336 h, 14 DAA) [%] | pest or weed control at 280 g/ha ([1]; 504 h, 21 DAA) [%] | pest or weed control at 560 g/ha ([1]; 504 h, 21 DAA) [%] | pest or weed control at 280 g/ha ([2]; 168 h, 7 DAA) [%] | pest or weed control at 280 g/ha ([2]; 336 h, 14 DAA) [%] | pest or weed control at 560 g/ha ([2]; 336 h, 14 DAA) [%] | pest or weed control at 280 g/ha ([2]; 504 h, 21 DAA) [%] | pest or weed control at 560 g/ha ([2]; 504 h, 21 DAA) [%] | TGA Data (rate of weight loss, volatility) [3] [µg/min] | pest or weed control at 280 g/ha ([4]; 168 h, 7 DAA) [%] | pest or weed control at 280 g/ha ([4]; 336 h, 14 DAA) [%] | pest or weed control at 560 g/ha ([4]; 336 h, 14 DAA) [%] | pest or weed control at 280 g/ha ([4]; 504 h, 21 DAA) [%] | pest or weed control at 560 g/ha ([4]; 504 h, 21 DAA) [%] | pest or weed control at 280 g/ha ([5]; 168 h, 7 DAA) [%] | pest or weed control at 280 g/ha ([5]; 336 h, 14 DAA) [%] | pest or weed control at 560 g/ha ([5]; 336 h, 14 DAA) [%] | pest or weed control at 280 g/ha ([5]; 504 h, 21 DAA) [%] | also measured |
| --- | --- | --- | --- | --- | --- | --- | --- | --- | --- | --- | --- | --- | --- | --- | --- | --- | --- | --- | --- | --- | --- |
| O=C(COc1ccc(Cl)cc1Cl)Oc1cccnc1 [Compound E9] | 57.5 | 75 | 98 | 88.5 | 99.5 | 75 | 96.5 | 99 | 90 | 93.5 | 0.6748 | 77.5 | 85 | 87.5 | 92.5 | 94 | 80 | 90 | 97.5 | 100 | pest or weed control at 660 g/ha ([1]; 168 h, 660 g ae/ha, 7 DAA): 82.5%; pest or weed control at 660 g/ha ([2]; 168 h, 660 g ae/ha, 7 DAA): 80%; pest or weed control at 660 g/ha ([4]; 168 h, 660 g ae/ha, 7 DAA): 92.5%; pest or weed control at 660 g/ha ([5]; 168 h, 660 g ae/ha, 7 DAA): 87.5%; pest or weed control at 560 g/ha ([5]; 504 h, 21 DAA): 100%; pest or weed control at 280 g/ha ([6]; 168 h, 7 DAA): 74.5%; pest or weed control at 660 g/ha ([6]; 168 h, 660 g ae/ha, 7 DAA): 84%; pest or weed control at 280 g/ha ([6]; 336 h, 14 DAA): 89.2%; pest or weed control at 560 g/ha ([6]; 336 h, 14 DAA): 96.4%; pest or weed control at 280 g/ha ([6]; 504 h, 21 DAA): 94%; pest or weed control at 560 g/ha ([6]; 504 h, 21 DAA): 97.4%; pest or weed control at 280 g/ha ([7]; 168 h, 7 DAA): 82.5%; pest or weed control at 660 g/ha ([7]; 168 h, 660 g ae/ha, 7 DAA): 77.5%; pest or weed control at 280 g/ha ([7]; 336 h, 14 DAA): 99.5%; pest or weed control at 560 g/ha ([7]; 336 h, 14 DAA): 100%; pest or weed control at 280 g/ha ([7]; 504 h, 21 DAA): 99%; pest or weed control at 560 g/ha ([7]; 504 h, 21 DAA): 100% |
| O=C(COc1ccc(Cl)cc1Cl)Oc1ccccn1 [Compound E11] | 65 | 85 | 97.5 | 98.5 | 100 | 77.5 | 97.5 | 98 | 92.5 | 100 | 0.4827 | 70 | 90 | 93.5 | 67.5 | 90 | 77.5 | 70 | 90 | 100 | pest or weed control at 560 g/ha ([1]; 168 h, 7 DAA): 82.5%; pest or weed control at 560 g/ha ([2]; 168 h, 7 DAA): 80%; pest or weed control at 560 g/ha ([4]; 168 h, 7 DAA): 85%; pest or weed control at 560 g/ha ([5]; 168 h, 7 DAA): 80%; pest or weed control at 560 g/ha ([5]; 504 h, 21 DAA): 100%; pest or weed control at 280 g/ha ([6]; 168 h, 7 DAA): 74.5%; pest or weed control at 560 g/ha ([6]; 168 h, 7 DAA): 82.5%; pest or weed control at 280 g/ha ([6]; 336 h, 14 DAA): 88%; pest or weed control at 560 g/ha ([6]; 336 h, 14 DAA): 95.6%; pest or weed control at 280 g/ha ([6]; 504 h, 21 DAA): 91.7%; pest or weed control at 560 g/ha ([6]; 504 h, 21 DAA): 98%; pest or weed control at 280 g/ha ([7]; 168 h, 7 DAA): 82.5%; pest or weed control at 560 g/ha ([7]; 168 h, 7 DAA): 85%; pest or weed control at 280 g/ha ([7]; 336 h, 14 DAA): 97.5%; pest or weed control at 560 g/ha ([7]; 336 h, 14 DAA): 90%; pest or weed control at 280 g/ha ([7]; 504 h, 21 DAA): 100%; pest or weed control at 560 g/ha ([7]; 504 h, 21 DAA): 100% |

From patent US20260042731A1, “(2,4-DICHLOROPHENOXY)ACETIC ACID ANALOGS” (CORTEVA AGRISCIENCE LLC, priority 2022, published 2026)
